Test results as given in US5620975A, “Pharmaceutical composition and method for the control of hypertension” (Hoffmann-La Roche Inc., priority 1991, dated 1997).
Structures can show the parent of a compound that is named as a salt.

Tests used:
[1] = system: conscious dogs having renal hypertension; test: Blood pressure (MAP, telemetry) in conscious dogs having renal hypertension; assay type: in vivo, dog (German sheepdogs); conditions: FIG. 1, conscious renal hypertensive dogs
Method: The antihypertensive effect of the combination was investigated in conscious dogs having renal hypertension. The hypertension was produced in German sheepdogs (weight 23-30 kg) using known methods in which one kidney is wrapped with cellophane and a stenosis is formed in the renal artery of the contralateral kidney using an occluder. The blood pressure was measured with a catheter implanted in the abdominal aorta and connected to a transmitter in the abdominal, cavity (telemetry). FIG. 1 illustrates the effect of cilazapril (10 mg/kg per os) and Compound A (30 mg/kg per os) alone, as well as, the effect of the simultaneous administration of the same dosages of the two substances (n=3 dogs for cilazapril and the combination, n=4 dogs for Compound A).

[2] = Bioavailability; conditions: in vivo
[3] = system: media of the right carotid artery; test: Cross-section surface (area) of the media of the carotid artery in rats after 15 days of treatment; assay type: in vivo, rat (male, strain RoRo); conditions: rat carotid artery; for area of the media: cilazapril 10 mg/kg daily in feed, Compound A 30 mg/kg by probang, control 89000±5000 μm^2, combination p<0.05 (Student t-test); for effect of individual treatment on media area: result in words
Method: The influence of the individual compounds and their combination on the blood vessels was investigated in rats. Male rats, strain: RoRo (weight about 400 g; aged 4-5 months; Institut fur Biologisch-Medizinische Forschung, Fullinsdorf, CH) were used. The animals were divided randomly into a control group and into treatment groups. The duration of the treatment was 15 days. Cilazapril was admixed with the feed in an amount such that the daily intake was on average 10 mg/kg and Compound A (30 mg/kg) was administered using a probang. The control animals received the same laboratory feed without additive.
After 15 days, the rats were anaesthetized with ether and the carotid artery was fixed by perfusion with fixative agent (2.5% glutaraldehyde in 0.1M phosphate buffer, pH 7.4). For this, a probe was passed through the left ventricle of the heart into the ascending aorta (inflow) and a second probe was pushed through the right ventricle into the auricle (discharge).The vascular system was firstly rinsed with 10 ml of buffered isotonic NaCl solution and then fixed for 15 minutes with fixative at a pressure of 11.7 kPa. Subsequently, the right carotid artery was dissected, freed from adhering tissue and placed in 2.5% glutaraldehyde for further fixation. Each artery was divided into five vascular segments from the distal end to the proximal end, dehydrated and embedded in EPON 12 (Registered Mark of Shell A.G.). The middle segment was used for the morphological investigations. Semi-thin cross-sections (1 μm thick) were colored with toluidine blue and basic fuchsin. The cross-section surface of the media was measured with the morphometry system DIASYS (Datalab, Heinz Meyer, CH-3367 Thorigen).

| bioavailability [2] | SMILES | lowering of blood pressure (MAP) ([1]; Compound A 30 mg/kg per os alone, n=4) | area of the media [3] | effect of individual treatment on media area [3] | effect on blood pressure (MAP) ([1]; cilazapril 10 mg/kg per os, Compound A 30 mg/kg per os, alone or simultaneously, result in words) |
| --- | --- | --- | --- | --- | --- |
| 80 to 100% | COCC(=O)OC1(CCN(C)CCCc2nc3ccccc3[nH]2)CCc2cc(F)ccc2C1C(C)C (centres unmarked) [Compound A, [1S,2S]-2-[2-[[3-(2-benzimidazolyl)propyl]methylamino]ethyl]-6-fluoro-1,2,3,4-tetrahydro-1-isopropyl-2-naphthylmethoxyacetate dihydrochloride] | 10-20 mmHg | 87000±4000 μm^2 | without effect |  |
| 70% | CCOC(=O)[C@H](CCc1ccccc1)N[C@H]1CCCN2CCC[C@@H](C(=O)O)N2C1=O [cilazapril, 9(S)-[1(S)-ethoxycarbonyl-3-phenylpropylamino]octahydro-10-oxo-6H-pyridazo[1,2-a][1,2]diazepine-1(S)-carboxylic acid] |  | 84000±11000 μm^2 | without effect | without effect |
